Results reported in US20250134855A1, “CO[…] AND METHODS OF USING SAME” (LYKOS THERAPEUTICS, INC., priority 2022, published 2025).

Tests used:
male rats = experiment: In vivo genotoxicity (micronucleated polychromatic erythrocytes), male rats; parameters: species or system rat; details: oral, doses up to 100 mg/kg day over two days
Description: No statistically significant differences in micronucleated polychromatic erythrocytes or bone marrow cytotoxicity were observed across all dose levels.

OAT3 = OAT3 (Homo sapiens, UniProt Q8TCC7); experiment: Transporter inhibition, OAT3
OAT3, sequence (Q8TCC7 whole entry): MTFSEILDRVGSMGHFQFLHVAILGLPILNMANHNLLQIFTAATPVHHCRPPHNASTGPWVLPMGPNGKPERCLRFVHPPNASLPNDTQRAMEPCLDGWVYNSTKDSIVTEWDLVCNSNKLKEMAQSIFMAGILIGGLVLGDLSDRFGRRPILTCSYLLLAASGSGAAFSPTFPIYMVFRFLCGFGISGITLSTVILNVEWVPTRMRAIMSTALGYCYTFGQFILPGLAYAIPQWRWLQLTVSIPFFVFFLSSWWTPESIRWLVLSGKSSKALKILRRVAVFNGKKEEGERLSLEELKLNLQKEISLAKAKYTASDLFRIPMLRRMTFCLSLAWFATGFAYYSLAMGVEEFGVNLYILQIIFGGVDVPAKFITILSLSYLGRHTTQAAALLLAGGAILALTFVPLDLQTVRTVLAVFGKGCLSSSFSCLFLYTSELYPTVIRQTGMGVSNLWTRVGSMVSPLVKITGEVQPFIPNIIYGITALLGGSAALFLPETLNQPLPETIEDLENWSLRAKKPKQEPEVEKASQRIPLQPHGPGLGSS

[1] = test system: bacterial reverse mutation assay (Ames test); experiment: In vitro bacterial reverse mutation assay (Ames test); type: cell-based; details: with or without metabolic activation
Description: MDMA was not mutagenic with or without metabolic activation in the in vitro bacterial reverse mutation assay (Ames test).

[2] = test system: participants with PTSD, eating disorder symptoms; experiment: EAT-26 eating disorder psychopathology before and after MDMA-AT (Phase 3 trial NCT03537014); type: in vivo, human
Description: The Eating Attitudes Test (EAT or EAT-26) is a standardized self-reported questionnaire of symptoms and concerns characteristic of eating disorders. The EAT-26 uses a six-point scale based on how often the individual engages in specific behaviors. The questions can be answered: Always, Usually, Often, Sometimes, Rarely, and Never. Completing the EAT-26 yields a “referral index” based on three criteria: 1) the total score based on the answers to the EAT-26 questions; 2) answers to the behavioral questions related to eating symptoms and weight loss, and 3) the individual's body mass index (BMI) calculated from their height and weight. In some cases, an individual can be recommended for additional care if the individual meets a “cut off” score or threshold on one or more criteria. For example, if an individual score higher than a 20, the individual should be referred to a qualified professional for potential diagnosis of an eating disorder. (See, for example, Garner, D. M., & Garfinkel, P. E. (1979). Psychological Medicine, 9, 273-279.)
Exploratory data on ED psychopathology were analyzed that were collected as part of a Phase 3 trial (trial ID: NCT03537014, which is herein incorporated by reference in its entirety), which was a double-blind randomized controlled study that compared efficacy and safety of MDMA-AT between placebo and MDMA groups for treatment of PTSD. EAT-26 was included as a pre-specified exploratory measure to assess participants' attitudes about eating and food in addition to the presence of previously undetected EDs. EAT-26 assessments were collected at baseline (visit 4) and study termination (visit 20). This self-reported questionnaire consists of 25 components, each rated on a six-point scale of 0 (Never) to 3 (Always), plus an additional component rated from 0 (Always) to 3 (Never). The […] item addresses occurrence and frequency of specific eating behaviors, such as binge eating. Scores were combined to produce a total EAT-26 score, ranging from 0 to 78, with lower values indicating fewer symptoms. Participants meeting a total cut-off score of 20 or greater are considered likely candidates for having an ED diagnosis and warrant referral to a qualified professional.
Among a total of 90 participants who were randomized and received treatment, 89 participants completed the EAT-26 assessment at baseline, and seven participants withdrew from the study and were missing follow-up data (3 MDMA, 4 placebo). A total of 82 of 90 participants (91.1%) completed both baseline and follow-up EAT-26 assessments and were included in the final analysis. This preliminary analysis of an exploratory measure included only completers of both EAT-26 scores at baseline and follow-up assessments to avoid imputation of data that would attenuate the accuracy of results. […] The baseline sample consisted of participants who were majority female (65.2%), identified as women (62.9%), non-Hispanic White or Latino (89.9%), college graduates (70.8%), and the mean (SD) age was 41.0 (12.00) years. In total, 17 participants had been prescribed sertraline, of which 8 and 9 were assigned to the MDMA and placebo treatment groups, respectively. Furthermore, 6 participants had been prescribed paroxetine, which were equally distributed between MDMA and placebo treatment groups (3 and 3, respectively). At baseline, BMI (kg/m2) scores were in the ‘normal’ range (BMI 18.5-24.9) in 56.2%, ‘overweight’ (BMI 25.0-29.9) in 28.1%, and ‘obese’ (BMI≥30) in 15.7% of participants. There were no treatment group differences in demographic variables or baseline ACE, BDI-II, CAPS-5, or lifetime C-SSRS assessments. Mean BMI (SD) was 26.0 (4.8) kg/m2 in the MDMA-AT group and 24.8 (4.2) kg/m2 in the PLAC-AT group (t=1.3, p=. 2).

[3] = target: organic anion transporter (OAT1) (Homo sapiens, UniProt Q4U2R8); experiment: Transporter inhibition, OAT1
organic anion transporter (OAT1), sequence (Q4U2R8 whole entry): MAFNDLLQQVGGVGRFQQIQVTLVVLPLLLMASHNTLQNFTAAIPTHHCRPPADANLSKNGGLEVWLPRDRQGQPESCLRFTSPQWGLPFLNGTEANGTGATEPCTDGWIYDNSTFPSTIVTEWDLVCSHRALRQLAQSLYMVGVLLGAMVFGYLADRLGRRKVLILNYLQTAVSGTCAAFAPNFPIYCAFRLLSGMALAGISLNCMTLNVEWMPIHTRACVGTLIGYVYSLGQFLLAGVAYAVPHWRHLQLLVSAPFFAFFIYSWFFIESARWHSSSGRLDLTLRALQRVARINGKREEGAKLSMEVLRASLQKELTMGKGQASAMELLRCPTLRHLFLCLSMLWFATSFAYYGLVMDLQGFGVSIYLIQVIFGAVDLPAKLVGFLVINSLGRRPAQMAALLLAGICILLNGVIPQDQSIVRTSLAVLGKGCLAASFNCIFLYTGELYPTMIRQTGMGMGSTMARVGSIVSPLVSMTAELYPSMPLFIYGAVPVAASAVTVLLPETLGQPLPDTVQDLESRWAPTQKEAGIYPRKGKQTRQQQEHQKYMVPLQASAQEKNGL

CNC(C)Cc1ccc2c(c1)OCO2 (stereo not shown) [MDMA, 3,4-methylenedioxymethamphetamine]
genotoxicity in vivo (male rats): no signs of genotoxicity | inhibition of OAT3 (OAT3): not an inhibitor | mutagenicity, Ames test [1]: not mutagenic | Cohen's d, EAT-26 reduction MDMA vs placebo ([2]; baseline EAT-26≥11 subset): 0.52 | RCI score, EAT-26 ([2]; baseline EAT-26≥11 subset): −2.16 | within-subject mean (SD) reduction in EAT-26 scores ([2]; baseline EAT-26≥11 subset): −9.58 (7.59) | RCI score, EAT-26 ([2]; baseline EAT-26≥20 subset): −2.83 | within-subject mean reduction in EAT-26 scores ([2]; baseline EAT-26≥20 subset): −14.08 | participants with EAT-26≥20 at follow-up ([2]; reduced from 5 (11.90%) at baseline): 2.38% | within-subject mean (SD) reduction in EAT-26 scores, baseline to follow-up ([2]; total sample): −3.04 (6.24) | Hedge's g, EAT-26 change scores MDMA vs placebo ([2]; total sample, adjusted for baseline): 0.33 | RCI score, EAT-26 ([2]; women with EAT-26≥11): −2.90 | Hedge's g, EAT-26 change scores MDMA vs. placebo ([2]; women with baseline EAT-26≥11): 0.63 | Hedge's g, EAT-26 change scores MDMA vs. placebo ([2]; women with baseline EAT-26≥20): 0.60 | RCI, change in EAT-26 score ([2]; women with baseline EAT-26≥20, group not given): −18.80 | inhibition of OAT1 [3]: not an inhibitor
